Values joined by “and” are separate entries in the source; they are usually repeats but may differ in a detail not shown here. Identical values can stand only once. Like-named read-outs stand apart in the source and are kept apart here.
Legend:
Test in all cases: Chemosensitivity, 96 h continuous exposure, MTT assay;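 on SI (NPI): adult human brain neural progenitor non-cancer cells from an epilepsy surgery patient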;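 on Selectivity Index using the NPI non-cancer cell line: adult human brain neural progenitor non-cancer cells from an epilepsy surgery patient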
Type in all cases: cell-based, human
PSN1 = system: PSN1;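 on SI (NPI): adult human brain neural progenitor non-cancer cells from an epilepsy surgery patient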;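 on Selectivity Index using the NPI non-cancer cell line: adult human brain neural progenitor non-cancer cells from an epilepsy surgery patient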
Outline: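 Cells seeded at 2 × 10^3/well (GBM1 3 × 10^3/well) and left overnight at 37 °C, then exposed continuously for 96 h to a range of compound concentrations (final DMSO 0.2%). Viability read by MTT, absorbance at 540 nm; IC50 taken from dose-response curves as concentration reducing cell growth by 50%.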

HT-29 = system: HT-29
Outline: (§1)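 Cells were seeded overnight at 37 °C (2 × 10^3/well; GBM1 at 3 × 10^3/well on poly-L-ornithine/laminin in Neurobasal with hFGF/rhEGF), then exposed to compound concentration ranges for 96 h. Viability was read by MTT (4 h, formazan in DMSO, A540) and IC50 taken from dose–response curves.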

HCT116 p53+/+ = system: HCT116 p53+/+
Outline: as §1

HCT116 p53-/- = settings: for SI (ARPE19): mean IC50 ARPE-19 / mean IC50 HCT116 p53-/-; for SI (MCF10A): mean IC50 MCF10A / mean IC50 HCT116 p53-/-
Outline: as §1

DLD-1 = system: DLD-1
Outline: as §1

BxPC3 = system: BxPC3
Outline: as §1

A549 = system: A549
Outline: as §1

CC(=O)[O-].CC(=O)[O-].CC(=O)[O-].CC(=O)[O-].CC(=O)[O-].CC(=O)[O-].[Zn+2].[Zn+2].[Zn+2].c1ccc(-c2csc(NCCN(CCNc3nc(-c4ccccn4)cs3)CCNc3nc(-c4ccccn4)cs3)n2)nc1.c1ccc(-c2csc(NCCN(CCNc3nc(-c4ccccn4)cs3)CCNc3nc(-c4ccccn4)cs3)n2)nc1 [[L2Zn3]6+]
Selectivity index (ARPE19) (PSN1; IC50 ARPE-19 / IC50 PSN1): 35.39 | Selectivity index (MCF10A) (PSN1; IC50 MCF10A / IC50 PSN1): 36.38 | Selectivity Index using the NPI non-cancer cell line (PSN1; IC50 NP1 / IC50 PSN1): 1.75 | IC50 (PSN1; PSN1, 96 h, MTT, individual run, read-out: IC50 values for each replicate): 6200 nM and 4880 nM and 2250 nM | IC50 (PSN1; PSN1, 96 h, MTT, mean of at least 3 independent experiments, read-out: Mean IC50): > 1000 nM | IC50 (PSN1; PSN1, mean of replicates, read-out: Mean IC50): 4440 nM | IC50 (PSN1; PSN1, read-out: Mean IC50 values): 4440 nM | SI (ARPE19) (PSN1; mean IC50 ARPE-19 / mean IC50 PSN1): 35.39 | SI (MCF10A) (PSN1; mean IC50 MCF10A / mean IC50 PSN1): 36.38 | SI (NPI) (PSN1; mean IC50 NP1 / mean IC50 PSN1): 1.75 | Relative potency (+ anion to no anion), Ratio + anion:no anion (PSN1; ratio of IC50, PSN1): 1 | Selectivity indices relative to ARPE-19, Ratio + anion:no anion (PSN1; ratio of SI (ARPE-19), PSN1): 1 | Selectivity indices relative to MCF10A, Ratio + anion:no anion (PSN1; ratio of SI (MCF 10A), PSN1): 1 | IC50 (HT-29; HT29, mean of replicates, read-out: Mean IC50): 169 nM | IC50 (HT-29; HT29, read-out: Mean IC50 values): 169 nM | IC50 (HT-29; HT-29, 96 h, MTT, individual run, read-out: IC50 values for each replicate): 83 nM and 161 nM and 235 nM and 184 nM and 182 nM | IC50 (HT-29; HT-29, 96 h, MTT, mean of at least 3 independent experiments, read-out: Mean IC50): 169 nM | Selectivity index (ARPE19) (HT-29; IC50 ARPE-19 / IC50 HT29): 930.47 | Selectivity index (MCF10A) (HT-29; IC50 MCF10A / IC50 HT29): 956.45 | Selectivity Index using the NPI non-cancer cell line (HT-29; IC50 NP1 / IC50 HT29): 46.04 | SI (ARPE19) (HT-29; mean IC50 ARPE-19 / mean IC50 HT-29): 930.47 | SI (MCF10A) (HT-29; mean IC50 MCF10A / mean IC50 HT-29): 956.45 | SI (NPI) (HT-29; mean IC50 NP1 / mean IC50 HT-29): 46.04 | Relative potency (+ anion to no anion), Ratio + anion:no anion (HT-29; ratio of IC50, HT29): 1 | Selectivity indices relative to ARPE-19, Ratio + anion:no anion (HT-29; ratio of SI (ARPE-19), HT29): 1 | Selectivity indices relative to MCF10A, Ratio + anion:no anion (HT-29; ratio of SI (MCF 10A), HT29): 1 | IC50 (HCT116 p53+/+; HCT116 p53+/+, 96 h, MTT, mean of at least 3 independent experiments, read-out: Mean IC50): 466 nM | IC50 (HCT116 p53+/+; HCT116 p53+/+, mean of replicates, read-out: Mean IC50): 466 nM | IC50 (HCT116 p53+/+; HCT116 p53+/+, read-out: Mean IC50 values): 466 nM | Selectivity index (ARPE19) (HCT116 p53+/+; IC50 ARPE-19 / IC50 HCT116 p53+/+): 337.45 and 337.23 | Selectivity index (MCF10A) (HCT116 p53+/+; IC50 MCF10A / IC50 HCT116 p53+/+): 346.87 | Selectivity Index using the NPI non-cancer cell line (HCT116 p53+/+; IC50 NP1 / IC50 HCT116 p53+/+): 16.70 | SI (ARPE19) (HCT116 p53+/+; mean IC50 ARPE-19 / mean IC50 HCT116 p53+/+): 337.45 | SI (MCF10A) (HCT116 p53+/+; mean IC50 MCF10A / mean IC50 HCT116 p53+/+): 346.87 | SI (NPI) (HCT116 p53+/+; mean IC50 NP1 / mean IC50 HCT116 p53+/+): 16.70 | Relative potency (+ anion to no anion), Ratio + anion:no anion (HCT116 p53+/+; ratio of IC50, HCT116 p53+/+): 1 | Selectivity indices relative to ARPE-19, Ratio + anion:no anion (HCT116 p53+/+; ratio of SI (ARPE-19), HCT116 p53+/+): 1 | Selectivity indices relative to MCF10A, Ratio + anion:no anion (HCT116 p53+/+; ratio of SI (MCF 10A), HCT116 p53+/+): 1 | IC50 (HCT116 p53-/-; HCT116 p53-/-, 96 h, MTT, individual run, read-out: IC50 values for each replicate): 61 nM and 91 nM and 64 nM | IC50 (HCT116 p53-/-; HCT116 p53-/-, 96 h, MTT, mean of at least 3 independent experiments, read-out: Mean IC50): 72 nM | IC50 (HCT116 p53-/-; HCT116 p53-/-, 96 h, MTT, read-out: IC50): 70 ± 13 nM | IC50 (HCT116 p53-/-; HCT116 p53-/-, mean of replicates, read-out: Mean IC50): 75 nM | IC50 (HCT116 p53-/-; HCT116 p53-/-, read-out: Mean IC50 values): 72 nM | IC50 (HCT116 p53-/-; HCT116 p53-/-, single replicate, read-out: IC50 values for each replicate): 79 nM and 86 nM | Selectivity index (ARPE19) (HCT116 p53-/-; IC50 ARPE-19 / IC50 HCT116 p53-/-): 2184.03 and 2183.99 | Selectivity index (MCF10A) (HCT116 p53-/-; IC50 MCF10A / IC50 HCT116 p53-/-): 2245.00 | Selectivity Index using the NPI non-cancer cell line (HCT116 p53-/-; IC50 NP1 / IC50 HCT116 p53-/-): 108.06 | more active towards HCT116 p53-/- than HCT116 p53+/+ (HCT116 p53-/-; based on 96h IC50 values): ~ 6 fold | SI (ARPE19) (HCT116 p53-/-): 2184.03 | SI (ARPE19) (HCT116 p53-/-; listed as [L2Zn3]^6+): over 2000 | SI (MCF10A) (HCT116 p53-/-): 2245.00 | SI (MCF10A) (HCT116 p53-/-; listed as [L2Zn3]^6+): over 2000 | SI (NPI) (HCT116 p53-/-; mean IC50 NP1 / mean IC50 HCT116 p53-/-): 108.06 | Relative potency (+ anion to no anion), Ratio + anion:no anion (HCT116 p53-/-; ratio of IC50, HCT116 p53-/-): 1 | Selectivity indices relative to ARPE-19, Ratio + anion:no anion (HCT116 p53-/-; ratio of SI (ARPE-19), HCT116 p53-/-): 1 | Selectivity indices relative to MCF10A, Ratio + anion:no anion (HCT116 p53-/-; ratio of SI (MCF 10A), HCT116 p53-/-): 1 | IC50 (DLD-1; DLD-1, 96 h, MTT, individual run, read-out: IC50 values for each replicate): 216 nM and 89 nM and 84 nM and 141 nM and 222 nM and 211 nM and 225 nM | IC50 (DLD-1; DLD-1, 96 h, MTT, mean of at least 3 independent experiments, read-out: Mean IC50): 170 nM | IC50 (DLD-1; DLD-1, mean of replicates, read-out: Mean IC50): 170 nM | IC50 (DLD-1; DLD-1, read-out: Mean IC50 values): 170 nM | Selectivity index (ARPE19) (DLD-1; IC50 ARPE-19 / IC50 DLD-1): 925.00 | Selectivity index (MCF10A) (DLD-1; IC50 MCF10A / IC50 DLD-1): 950.82 | Selectivity Index using the NPI non-cancer cell line (DLD-1; IC50 NP1 / IC50 DLD-1): 45.76 | SI (ARPE19) (DLD-1; mean IC50 ARPE-19 / mean IC50 DLD-1): 925.00 | SI (MCF10A) (DLD-1; mean IC50 MCF10A / mean IC50 DLD-1): 950.82 | SI (NPI) (DLD-1; mean IC50 NP1 / mean IC50 DLD-1): 45.76 | Relative potency (+ anion to no anion), Ratio + anion:no anion (DLD-1; ratio of IC50, DLD-1): 1 | Selectivity indices relative to ARPE-19, Ratio + anion:no anion (DLD-1; ratio of SI (ARPE-19), DLD-1): 1 | Selectivity indices relative to MCF10A, Ratio + anion:no anion (DLD-1; ratio of SI (MCF 10A), DLD-1): 1 | IC50 (BxPC3; BXPC3, mean of replicates, read-out: Mean IC50): 320 nM | IC50 (BxPC3; BXPC3, read-out: Mean IC50 values): 320 nM | IC50 (BxPC3; BxPC3, 96 h, MTT, individual run, read-out: IC50 values for each replicate): 228 nM and 147 nM and 595 nM and 533 nM and 171 nM and 249 nM | IC50 (BxPC3; BxPC3, 96 h, MTT, mean of at least 3 independent experiments, read-out: Mean IC50): 320 nM | Selectivity index (ARPE19) (BxPC3; IC50 ARPE-19 / IC50 BXPC3): 491.41 | Selectivity index (MCF10A) (BxPC3; IC50 MCF10A / IC50 BXPC3): 505.12 | Selectivity Index using the NPI non-cancer cell line (BxPC3; IC50 NP1 / IC50 BXPC3): 24.31 | SI (ARPE19) (BxPC3; mean IC50 ARPE-19 / mean IC50 BxPC3): 491.41 | SI (MCF10A) (BxPC3; mean IC50 MCF10A / mean IC50 BxPC3): 505.12 | SI (NPI) (BxPC3; mean IC50 NP1 / mean IC50 BxPC3): 24.31 | Relative potency (+ anion to no anion), Ratio + anion:no anion (BxPC3; ratio of IC50, BXPC3): 1 | Selectivity indices relative to ARPE-19, Ratio + anion:no anion (BxPC3; ratio of SI (ARPE-19), BXPC3): 1 | Selectivity indices relative to MCF10A, Ratio + anion:no anion (BxPC3; ratio of SI (MCF 10A), BXPC3): 1 | IC50 (A549; A549, 96 h, MTT, individual run, read-out: IC50 values for each replicate): 161 nM and 257 nM and 503 nM and 692 nM | IC50 (A549; A549, 96 h, MTT, mean of at least 3 independent experiments, read-out: Mean IC50): 403 nM | IC50 (A549; A549, mean of replicates, read-out: Mean IC50): 403 nM | IC50 (A549; A549, read-out: Mean IC50 values): 403 nM | Selectivity index (ARPE19) (A549; IC50 ARPE-19 / IC50 A549): 390.20 | Selectivity index (MCF10A) (A549; IC50 MCF10A / IC50 A549): 401.09 | Selectivity Index using the NPI non-cancer cell line (A549; IC50 NP1 / IC50 A549): 19.31 | SI (ARPE19) (A549; mean IC50 ARPE-19 / mean IC50 A549): 390.20 | SI (MCF10A) (A549; mean IC50 MCF10A / mean IC50 A549): 401.09 | SI (NPI) (A549; mean IC50 NP1 / mean IC50 A549): 19.31 | Relative potency (+ anion to no anion), Ratio + anion:no anion (A549; ratio of IC50, A549): 1 | Selectivity indices relative to ARPE-19, Ratio + anion:no anion (A549; ratio of SI (ARPE-19), A549): 1 | Selectivity indices relative to MCF10A, Ratio + anion:no anion (A549; ratio of SI (MCF 10A), A549): 1

From article PMC8222254, “Self-assembly of an anion receptor with metal-dependent kinase inhibition and potent in vitro anti-cancer properties” (Nature Communications, 2021)
